According to patent US9695155B2, “Herbicidal substituted pyrimidinyloxy benzene compounds” (E. I. DU PONT DE NEMOURS AND COMPANY, priority 2013, dated 2017):

Key:
[1] = test system: pigweed; test: Test A preemergence; type: in vivo, Amaranthus retroflexus; conditions: for Plant response rating, Pigweed: 125 g ai/ha; for Pigweed plant response rating: 500 g ai/ha
Procedure, shortened: (§1)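 Visual injury scored 0–100 (100 = complete control) against untreated controls about 10 days after treatment in a greenhouse. Test chemicals, formulated with surfactant in non-phytotoxic solvent, were sprayed on soil preemergence or on 2-10 cm, one- to two-leaf plants postemergence.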

[2] = test system: pigweed; test: Test A postemergence; type: in vivo, Amaranthus retroflexus; conditions: 0 to 100 scale where 0 is no effect and 100 is complete control
Procedure, shortened: as §1

[3] = test system: wheat; test: Test A postemergence; type: in vivo, Triticum aestivum; conditions: 0 to 100 scale where 0 is no effect and 100 is complete control
Procedure, shortened: as §1

[4] = test system: sedge, umbrella; test: Test B flooded paddy test; type: in vivo, Cyperus difformis; conditions: Flood, 250 g ai/ha; 0 to 100 scale where 0 is no effect and 100 is complete control
Procedure, shortened: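 Plants at 2-leaf stage; pots flooded to 3 cm above soil and compound applied directly into paddy water, depth held throughout. After 13 to 15 days in greenhouse, visual rating versus controls on 0 (no effect) to 100 (complete control) scale.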

[5] = test system: Italian ryegrass; test: Test C preemergence; type: in vivo, Lolium multiflorum; conditions: for Ryegrass, Italian plant response rating: preemergence; for Plant response rating, Ryegrass, Italian: Preemergence, 31 g ai/ha, scale 0 to 100, 0 no effect, 100 complete control
Procedure, shortened: (§2)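 Seeds were sown in loam–sand blend and sprayed preemergence, while plants at 1- to 4-leaf stage (2–18 cm) in peat-based medium received postemergence sprays; test chemicals were formulated in a non-phytotoxic solvent with surfactant. After 13–15 days in a greenhouse, injury was rated visually against controls, 0 (no effect) to 100 (complete control).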

[6] = test system: galium; test: Test C preemergence; type: in vivo, Galium aparine; conditions: for Galium plant response rating: preemergence; for Plant response rating, Galium: Preemergence, 31 g ai/ha, scale 0 to 100, 0 no effect, 100 complete control
Procedure, shortened: as §2

[7] = test system: large (Lg) crabgrass; test: Test C postemergence; type: in vivo, Digitaria sanguinalis; conditions: for Crabgrass, Large plant response rating / Plant response rating, Crabgrass, Large: scale 0 to 100 (0 no effect, 100 complete control)
Procedure, shortened: as §2

[8] = test system: giant foxtail; test: Test C postemergence; type: in vivo, Setaria faberii; conditions: for Foxtail, Giant plant response rating / Plant response rating, Foxtail, Giant: scale 0 to 100 (0 no effect, 100 complete control)
Procedure, shortened: as §2

[9] = test system: johnsongrass; test: Test C postemergence; type: in vivo, Sorghum halepense; conditions: for Johnsongrass plant response rating / Plant response rating, Johnsongrass: scale 0 to 100 (0 no effect, 100 complete control)
Procedure, shortened: as §2

[10] = test system: yellow nutsedge; test: Test C postemergence; type: in vivo, Cyperus esculentus; conditions: for Plant response rating, Nutsedge, Yellow: scale 0 to 100 (0 no effect, 100 complete control)
Procedure, shortened: as §2

[11] = test system: soybean; test: Test C postemergence; type: in vivo, Glycine max; conditions: for Plant response rating, Soybean: scale 0 to 100 (0 no effect, 100 complete control)
Procedure, shortened: as §2

[12] = test system: oilseed rape; test: Test C postemergence; type: in vivo, Brassica napus; conditions: for Plant response rating, Oilseed Rape: scale 0 to 100 (0 no effect, 100 complete control)
Procedure, shortened: as §2

[13] = test system: velvetleaf; test: Test C postemergence; type: in vivo, Abutilon theophrasti; conditions: for Plant response rating, Velvetleaf: scale 0 to 100 (0 no effect, 100 complete control)
Procedure, shortened: as §2

[14] = 0 to 100 scale where 0 is no effect and 100 is complete control
[15] = 0 to 100 scale, 0 no effect, 100 complete control, approx. 10 days
[16] = 16 g ai/ha, scale 0 to 100 (0 no effect, 100 complete control)
[17] = 62 g ai/ha, scale 0 (no effect) to 100 (complete control)
[18] = 125 g ai/ha, scale 0 (no effect) to 100 (complete control)
[19] = 16 g ai/ha, postemergence, visual rating, 13 to 15 days
[20] = Postemergence, 31 g ai/ha, 13 to 15 days
[21] = 16 g ai/ha, postemergence, 0 is no effect, 100 is complete control
[22] = 125 g ai/ha, postemergence, visual rating

## N#Cc1cccc(Oc2ncc(Br)cn2)c1-n1cc(I)cn1 [Compound 88]
[1]; [14]
  Plant response rating, Pigweed: 100
[1]; [15]
  Pigweed plant response rating: 100
[2]; 125 g ai/ha
  Plant response rating, Pigweed: 100
[2]; 500 g ai/ha
  Plant response rating, Pigweed: 100
[3]; 125 g ai/ha
  Plant response rating, Wheat: 0
[3]; 500 g ai/ha
  Plant response rating, Wheat: 50
[4]
  Plant response rating, Sedge, Umbrella: 0
[5]; [16]
  Ryegrass, Italian plant response rating: 0
[5]; [17]
  Ryegrass, Italian plant response rating: 0
[5]; [18]
  Ryegrass, Italian plant response rating: 5
[5]
  Plant response rating, Ryegrass, Italian: 0
[6]; [16]
  Galium plant response rating: 0
[6]; [17]
  Galium plant response rating: 90
[6]; [18]
  Galium plant response rating: 80
[6]
  Plant response rating, Galium: 50
[7]; [19]
  Crabgrass, Large plant response rating: 5
[7]; 125 g ai/ha, postemergence
  Plant response rating (0 to 100), Crabgrass, Large: 10
[7]; [20]
  Plant response rating, Crabgrass, Large: 5
[7]; Postemergence, 62 g ai/ha
  Plant response rating, Crabgrass, Large: 10
[8]; [19]
  Foxtail, Giant plant response rating: 20
[8]; 125 g ai/ha, postemergence
  Plant response rating (0 to 100), Foxtail, Giant: 40
[8]; [20]
  Plant response rating, Foxtail, Giant: 35
[8]; Postemergence, 62 g ai/ha
  Plant response rating, Foxtail, Giant: 30
[9]; [19]
  Johnsongrass plant response rating: 0
[9]; 125 g ai/ha, postemergence
  Plant response rating (0 to 100), Johnsongrass: 10
[9]; [20]
  Plant response rating, Johnsongrass: 0
[9]; Postemergence, 62 g ai/ha
  Plant response rating, Johnsongrass: 5
[10]; 125 g ai/ha, postemergence
  Plant response rating (0 to 100), Nutsedge, Yellow: 10
[10]; [20]
  Plant response rating, Nutsedge, Yellow: 5
[10]; Postemergence, 62 g ai/ha
  Plant response rating, Nutsedge, Yellow: 10
[11]; 125 g ai/ha, postemergence
  Plant response rating (0 to 100), Soybean: 65
[11]; [20]
  Plant response rating, Soybean: 65
[11]; Postemergence, 62 g ai/ha
  Plant response rating, Soybean: 95
[12]; 125 g ai/ha, postemergence
  Plant response rating (0 to 100), Oilseed Rape: 45
[12]; [20]
  Plant response rating, Oilseed Rape: 50
[12]; Postemergence, 62 g ai/ha
  Plant response rating, Oilseed Rape: 55
[13]; 125 g ai/ha, postemergence
  Plant response rating (0 to 100), Velvetleaf: 55
[13]; [20]
  Plant response rating, Velvetleaf: 35
[13]; Postemergence, 62 g ai/ha
  Plant response rating, Velvetleaf: 40

## CCOc1cnn(-c2c(C#N)cccc2Oc2ncc(F)cn2)c1 [Compound 89]
[1]; [14]
  Plant response rating, Pigweed: 90
[1]; [15]
  Pigweed plant response rating: 100
[2]; 125 g ai/ha
  Plant response rating, Pigweed: 90
[2]; 500 g ai/ha
  Plant response rating, Pigweed: 100
[3]; 125 g ai/ha
  Plant response rating, Wheat: 20
[3]; 500 g ai/ha
  Plant response rating, Wheat: 70
[4]
  Plant response rating, Sedge, Umbrella: 85
[5]; [16]
  Ryegrass, Italian plant response rating: 0
[5]; [17]
  Ryegrass, Italian plant response rating: 45
[5]; [18]
  Ryegrass, Italian plant response rating: 50
[5]
  Plant response rating, Ryegrass, Italian: 5
[6]; [16]
  Galium plant response rating: 30
[6]; [17]
  Galium plant response rating: 85
[6]; [18]
  Galium plant response rating: 100
[6]
  Plant response rating, Galium: 100
[7]; [19]
  Crabgrass, Large plant response rating: 5
[7]; 125 g ai/ha, postemergence
  Plant response rating (0 to 100), Crabgrass, Large: 5
[7]; [20]
  Plant response rating, Crabgrass, Large: 5
[7]; Postemergence, 62 g ai/ha
  Plant response rating, Crabgrass, Large: 5
[8]; [19]
  Foxtail, Giant plant response rating: 5
[8]; 125 g ai/ha, postemergence
  Plant response rating (0 to 100), Foxtail, Giant: 10
[8]; [20]
  Plant response rating, Foxtail, Giant: 5
[8]; Postemergence, 62 g ai/ha
  Plant response rating, Foxtail, Giant: 5
[9]; [19]
  Johnsongrass plant response rating: 0
[9]; 125 g ai/ha, postemergence
  Plant response rating (0 to 100), Johnsongrass: 5
[9]; [20]
  Plant response rating, Johnsongrass: 5
[9]; Postemergence, 62 g ai/ha
  Plant response rating, Johnsongrass: 5
[10]; 125 g ai/ha, postemergence
  Plant response rating (0 to 100), Nutsedge, Yellow: 5
[10]; [20]
  Plant response rating, Nutsedge, Yellow: 5
[10]; Postemergence, 62 g ai/ha
  Plant response rating, Nutsedge, Yellow: 20
[11]; 125 g ai/ha, postemergence
  Plant response rating (0 to 100), Soybean: 95
[11]; [20]
  Plant response rating, Soybean: 65
[11]; Postemergence, 62 g ai/ha
  Plant response rating, Soybean: 90
[12]; 125 g ai/ha, postemergence
  Plant response rating (0 to 100), Oilseed Rape: 60
[12]; [20]
  Plant response rating, Oilseed Rape: 25
[12]; Postemergence, 62 g ai/ha
  Plant response rating, Oilseed Rape: 55
[13]; 125 g ai/ha, postemergence
  Plant response rating (0 to 100), Velvetleaf: 40
[13]; [20]
  Plant response rating, Velvetleaf: 15
[13]; Postemergence, 62 g ai/ha
  Plant response rating, Velvetleaf: 25

## Clc1cnc(Oc2cccc(Br)c2-n2cc(Br)nn2)nc1 [Compound 129]
[1]; [14]
  Plant response rating, Pigweed: 100
  Pigweed plant response rating: 100
[2]; 125 g ai/ha
  Pigweed plant response rating: 100
[2]; 500 g ai/ha
  Plant response rating, Pigweed: 100
[3]; 125 g ai/ha
  Wheat plant response rating: 0
[3]; 500 g ai/ha
  Plant response rating, Wheat: 70
[4]
  Plant response rating, Sedge, Umbrella: 65
[5]; [16]
  Ryegrass, Italian plant response rating: 0
[5]; [17]
  Ryegrass, Italian plant response rating: 10
[5]; [18]
  Ryegrass, Italian plant response rating: 35
[5]
  Plant response rating, Ryegrass, Italian: 0
[6]; [16]
  Galium plant response rating: 50
[6]; [17]
  Galium plant response rating: 95
[6]; [18]
  Galium plant response rating: 100
[6]
  Plant response rating, Galium: 80
[7]; [21]
  Plant response rating (0 to 100), Crabgrass, Large: 5
[7]; [22]
  Plant response rating, Crabgrass, Large: 10
[7]; Postemergence, 62 g ai/ha
  Plant response rating, Crabgrass, Large: 5
[8]; [21]
  Plant response rating (0 to 100), Foxtail, Giant: 5
[8]; [22]
  Plant response rating, Foxtail, Giant: 10
[8]; Postemergence, 62 g ai/ha
  Plant response rating, Foxtail, Giant: 5
[9]; [21]
  Plant response rating (0 to 100), Johnsongrass: 5
[9]; [22]
  Plant response rating, Johnsongrass: 5
[9]; Postemergence, 62 g ai/ha
  Plant response rating, Johnsongrass: 5
[10]; [21]
  Plant response rating (0 to 100), Nutsedge, Yellow: 0
[10]; [22]
  Plant response rating, Nutsedge, Yellow: 10
[10]; Postemergence, 62 g ai/ha
  Plant response rating, Nutsedge, Yellow: 5
[11]; [21]
  Plant response rating (0 to 100), Soybean: 35
[11]; [22]
  Plant response rating, Soybean: 60
[11]; Postemergence, 62 g ai/ha
  Plant response rating, Soybean: 85
[12]; [21]
  Plant response rating (0 to 100), Oilseed Rape: 5
[12]; [22]
  Plant response rating, Oilseed Rape: 60
[12]; Postemergence, 62 g ai/ha
  Plant response rating, Oilseed Rape: 60
[13]; [21]
  Plant response rating (0 to 100), Velvetleaf: 15
[13]; [22]
  Plant response rating, Velvetleaf: 40
[13]; Postemergence, 62 g ai/ha
  Plant response rating, Velvetleaf: 40
